Reference: US10577363B2, “Substituted piperidine compounds” (EPIZYME, INC., priority 2014, dated 2020)

Tests used:
SMYD3 [1] = biological target: T1, SMYD3 (Homo sapiens (Human), UniProt Q9H7B4); test: SMYD3 cell assay (Trimethyl-MEKK2 In-Cell Western in 293T/17 cells); format: cell-based; settings: read-out: SMYD3 Cell IC50*
Outline: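 In-Cell Western ratio of trimethyl-Lys260 MEKK2 to anti-flag signal; percent inhibition from DMSO and maximum-inhibition controls, IC50 by non-linear regression, triplicates.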

SMYD3 [2] = biological target: T1, SMYD3; test: SMYD3 biochemical assay (SPA, 3H-SAM methylation of MEKK2 protein substrate); settings: read-out: SMYD3 Biochem IC50*
Outline: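 Native full-length human SMYD3 (E. coli-expressed, tags removed) was preincubated with compound for 30 min at room temperature in 25 mM Tris-Cl pH 8.0, 1 mM TCEP, 0.005% BSG, 0.005% Tween 20. Reaction was started with 3H-SAM plus GST-MEKK2, quenched with 100 uM unlabeled SAM, and read by SPA scintillation counting.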

T1 sequence (Q9H7B4 whole entry): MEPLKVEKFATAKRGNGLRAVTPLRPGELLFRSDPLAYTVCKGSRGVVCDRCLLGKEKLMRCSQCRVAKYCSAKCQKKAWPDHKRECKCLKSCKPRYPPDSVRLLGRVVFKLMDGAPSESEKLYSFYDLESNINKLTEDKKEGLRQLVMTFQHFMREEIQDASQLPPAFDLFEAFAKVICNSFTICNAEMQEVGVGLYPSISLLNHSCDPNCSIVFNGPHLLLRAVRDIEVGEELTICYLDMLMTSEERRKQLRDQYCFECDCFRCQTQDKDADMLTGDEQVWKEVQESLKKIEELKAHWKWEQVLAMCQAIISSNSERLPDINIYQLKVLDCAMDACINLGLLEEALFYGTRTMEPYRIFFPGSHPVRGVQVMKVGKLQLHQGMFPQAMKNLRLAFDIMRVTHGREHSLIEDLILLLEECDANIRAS

Compound | IC50 (SMYD3 [1]) | IC50 (SMYD3 [2])
CCN(C)C1CCN(S(=O)(=O)N2[C@@H]3CC[C@H]2C[C@@H](NC(=O)c2cc(C4CC4)on2)C3)CC1 [compound 852, 5-cyclopropyl-N-((1R,3r,5S)-8-((4-(ethyl(methyl)amino)piperidin-1-yl)sulfonyl)-8-azabicyclo[3.2.1]octan-3-yl)isoxazole-3-carboxamide] | 114 nM | 6.5 nM
CC(C)CNC1CCN(S(=O)(=O)N2[C@@H]3CC[C@H]2C[C@@H](NC(=O)c2cc(C4CC4)on2)C3)CC1 [compound 853, 5-cyclopropyl-N-((1R,3r,5S)-8-((4-(isobutylamino)piperidin-1-yl)sulfonyl)-8-azabicyclo[3.2.1]octan-3-yl)isoxazole-3-carboxamide] | 71 nM | 6.55 nM
O=C(N[C@H]1C[C@H]2CC[C@@H](C1)N2S(=O)(=O)N1CC2CCC1CN2)c1cc(C2CC2)on1 [compound 855, N-((1R,3r,5S)-8-((2,5-diazabicyclo[2.2.2]octan-2-yl)sulfonyl)-8-azabicyclo[3.2.1]octan-3-yl)-5-cyclopropylisoxazole-3-carboxamide] | 68.7 nM | 7.06 nM
O=C(N[C@H]1C[C@H]2CC[C@@H](C1)N2S(=O)(=O)N1CCNCC1)c1cc(C2CC2)on1 [compound 856, 5-cyclopropyl-N-((1R,3r,5S)-8-(piperazin-1-ylsulfonyl)-8-azabicyclo[3.2.1]octan-3-yl)isoxazole-3-carboxamide] | 46.7 nM | 7.09 nM
CC1CC(CS(=O)(=O)N2[C@@H]3CC[C@H]2C[C@@H](NC(=O)c2cc(C4CC4)on2)C3)CC(C)N1 (stereo partly drawn) [compound 857, 5-cyclopropyl-N-((1R,3r,5S)-8-(((2,6-dimethylpiperidin-4-yl)methyl)sulfonyl)-8-azabicyclo[3.2.1]octan-3-yl)isoxazole-3-carboxamide] | 130 nM | 7.09 nM
C[C@H]1C[C@@H](NC(=O)c2cc(C3CC3)on2)CCN1S(=O)(=O)CC[C@H]1CCNC1 [compound 858, 5-cyclopropyl-N-((2S,4S)-2-methyl-1-((2-((R)-pyrrolidin-3-yl)ethyl)sulfonyl)piperidin-4-yl)isoxazole-3-carboxamide] | 172 nM | 7.2 nM
O=C(N[C@H]1C[C@H]2CC[C@@H](C1)N2S(=O)(=O)[C@H]1CC[C@H](NCCN2CCOCC2)CC1)c1cc(C2CC2)on1 [compound 859, 5-cyclopropyl-N-((1R,3R,5S)-8-(((1r,4R)-4-((2-morpholinoethyl)amino)cyclohexyl)sulfonyl)-8-azabicyclo[3.2.1]octan-3-yl)isoxazole-3-carboxamide] | 209 nM | 7.43 nM
CC(C)CN(C)C1CCN(S(=O)(=O)N2[C@@H]3CC[C@H]2C[C@@H](NC(=O)c2cc(C4CC4)on2)C3)CC1 [compound 860, 5-cyclopropyl-N-((1R,3r,5S)-8-((4-(isobutyl(methyl)amino)piperidin-1-yl)sulfonyl)-8-azabicyclo[3.2.1]octan-3-yl)isoxazole-3-carboxamide] | 139 nM | 7.52 nM
COCCNC1CCN(S(=O)(=O)N2CC[C@H](NC(=O)c3cc(C4CC4)on3)C[C@@H]2C)CC1 [compound 861, 5-cyclopropyl-N-((2S,4S)-1-((4-((2-methoxyethyl)amino)piperidin-1-yl)sulfonyl)-2-methylpiperidin-4-yl)isoxazole-3-carboxamide] | 102 nM | 7.65 nM
CCCN(C)C1CCN(S(=O)(=O)N2[C@@H]3CC[C@H]2C[C@@H](NC(=O)c2cc(C4CC4)on2)C3)CC1 [compound 862, 5-cyclopropyl-N-((1R,3r,5S)-8-((4-(methyl(propyl)amino)piperidin-1-yl)sulfonyl)-8-azabicyclo[3.2.1]octan-3-yl)isoxazole-3-carboxamide] | 76.5 nM | 7.69 nM
CCCNC1CCN(S(=O)(=O)N2[C@@H]3CC[C@H]2C[C@@H](NC(=O)c2cc(C4CC4)on2)C3)CC1 [compound 863, 5-cyclopropyl-N-((1R,3r,5S)-8-((4-(propylamino)piperidin-1-yl)sulfonyl)-8-azabicyclo[3.2.1]octan-3-yl)isoxazole-3-carboxamide] | 80 nM | 7.77 nM
CN1CC2CC1CN2S(=O)(=O)N1[C@@H]2CC[C@H]1C[C@@H](NC(=O)c1cc(C3CC3)on1)C2 [compound 864, 5-cyclopropyl-N-((1R,3r,5S)-8-((5-methyl-2,5-diazabicyclo[2.2.1]heptan-2-yl)sulfonyl)-8-azabicyclo[3.2.1]octan-3-yl)isoxazole-3-carboxamide] | 86.2 nM | 8.22 nM
CCNC1CCN(S(=O)(=O)N2[C@@H]3CC[C@H]2C[C@@H](NC(=O)c2cc(C4CC4)on2)C3)CC1 [compound 865, 5-cyclopropyl-N-((1R,3r,5S)-8-((4-(ethylamino)piperidin-1-yl)sulfonyl)-8-azabicyclo[3.2.1]octan-3-yl)isoxazole-3-carboxamide] | 90.2 nM | 8.55 nM
CC(C)CN1C2CCC1CN(S(=O)(=O)N1[C@@H]3CC[C@H]1C[C@@H](NC(=O)c1cc(C4CC4)on1)C3)C2 [compound 866, 5-cyclopropyl-N-((1R,3r,5S)-8-((8-isobutyl-3,8-diazabicyclo[3.2.1]octan-3-yl)sulfonyl)-8-azabicyclo[3.2.1]octan-3-yl)isoxazole-3-carboxamide] | 201 nM | 8.63 nM
O=C(N[C@H]1C[C@H]2CC[C@@H](C1)N2S(=O)(=O)N1CC2CCC(C1)N2CCc1ccccc1)c1cc(C2CC2)on1 [compound 867, 5-cyclopropyl-N-((1R,3r,5S)-8-((8-phenethyl-3,8-diazabicyclo[3.2.1]octan-3-yl)sulfonyl)-8-azabicyclo[3.2.1]octan-3-yl)isoxazole-3-carboxamide] | 844 nM | 8.67 nM
O=C(N[C@H]1C[C@H]2CC[C@@H](C1)N2S(=O)(=O)N1CCC(NCCCN2CCCC2)CC1)c1cc(C2CC2)on1 [compound 868, 5-cyclopropyl-N-((1R,3r,5S)-8-((4-((3-(pyrrolidin-1-yl)propyl)amino)piperidin-1-yl)sulfonyl)-8-azabicyclo[3.2.1]octan-3-yl)isoxazole-3-carboxamide] | 310 nM | 8.68 nM
COCCCNC1CCN(S(=O)(=O)N2[C@@H]3CC[C@H]2C[C@@H](NC(=O)c2cc(C4CC4)on2)C3)CC1 [compound 869, 5-cyclopropyl-N-((1R,3r,5S)-8-((4-((3-methoxypropyl)amino)piperidin-1-yl)sulfonyl)-8-azabicyclo[3.2.1]octan-3-yl)isoxazole-3-carboxamide] | 117 nM | 9.05 nM
COCCNC1CCN(S(=O)(=O)N2[C@@H]3CC[C@H]2C[C@@H](NC(=O)c2cc(C4CC4)on2)C3)CC1 [compound 870, 5-cyclopropyl-N-((1R,3r,5S)-8-((4-((2-methoxyethyl)amino)piperidin-1-yl)sulfonyl)-8-azabicyclo[3.2.1]octan-3-yl)isoxazole-3-carboxamide] | 130 nM | 9.34 nM
CC(C)c1cc(C(=O)N[C@H]2C[C@H]3CC[C@@H](C2)N3S(=O)(=O)[C@H]2CC[C@H](N)CC2)no1 [compound 871, N-((1R,3R,5S)-8-(((1r,4R)-4-aminocyclohexyl)sulfonyl)-8-azabicyclo[3.2.1]octan-3-yl)-5-isopropylisoxazole-3-carboxamide] | 86.7 nM | 9.38 nM
CCN(CC)C1CCN(S(=O)(=O)N2CC[C@H](NC(=O)c3cc(C4CC4)on3)C[C@@H]2C)CC1 [compound 872, 5-cyclopropyl-N-((2S,4S)-1-((4-(diethylamino)piperidin-1-yl)sulfonyl)-2-methylpiperidin-4-yl)isoxazole-3-carboxamide] | 183 nM | 9.46 nM
C[C@H]1CN(S(=O)(=O)[C@H]2CC[C@@H](N)CC2)CC[C@H]1NC(=O)c1cc(C2CC2)on1 [compound 873, N-((3S,4R)-1-(((1s,4R)-4-aminocyclohexyl)sulfonyl)-3-methylpiperidin-4-yl)-5-cyclopropylisoxazole-3-carboxamide] | 169 nM | 9.62 nM
CN(CCCN1CCCC1)C1CCN(S(=O)(=O)N2[C@@H]3CC[C@H]2C[C@@H](NC(=O)c2cc(C4CC4)on2)C3)CC1 [compound 874, 5-cyclopropyl-N-((1R,3r,5S)-8-((4-(methyl(3-(pyrrolidin-1-yl)propyl)amino)piperidin-1-yl)sulfonyl)-8-azabicyclo[3.2.1]octan-3-yl)isoxazole-3-carboxamide] | 237 nM | 9.87 nM
C[C@H](C1CCN(C)CC1)S(=O)(=O)N1[C@@H]2CC[C@H]1C[C@@H](NC(=O)c1cc(C3CC3)on1)C2 [compound 876, 5-cyclopropyl-N-((1R,3R,5S)-8-(((R)-1-(1-methylpiperidin-4-yl)ethyl)sulfonyl)-8-azabicyclo[3.2.1]octan-3-yl)isoxazole-3-carboxamide] | 186 nM | 10 nM
C[C@@H]1C[C@@H](NS(=O)(=O)N2[C@@H]3CC[C@H]2C[C@@H](NC(=O)c2cc(C4CC4)on2)C3)CCN1 [compound 877, 5-cyclopropyl-N-((1R,3S,5S)-8-(N-((2R,4S)-2-methylpiperidin-4-yl)sulfamoyl)-8-azabicyclo[3.2.1]octan-3-yl)isoxazole-3-carboxamide] | 176 nM | 10 nM
O=C(N[C@H]1C[C@H]2CC[C@@H](C1)N2S(=O)(=O)[C@@H]1CCCCNC1)c1cc(C2CC2)on1 [compound 878, N-((1R,3R,5S)-8-(((R)-azepan-3-yl)sulfonyl)-8-azabicyclo[3.2.1]octan-3-yl)-5-cyclopropylisoxazole-3-carboxamide] | 241 nM | 10.1 nM
